Reference: PubChem BioAssay AID1919005 (Molecular Pharmacology Branch, DTP, NCI, 2023)
Values joined by “and” are separate entries in the source; they are usually repeats but may differ in a detail not shown here. Equal values may be shown once.

Test system: 855422-203-R-J1-PDC complex spheroid growth
Assay: Anticancer human tumor 855422-203-R-J1-PDC patient-derived bladder carcinoma cell line growth inhibition [AhR]
Conditions: for viability, T/C: stronger effect = lower value; active = viability on the fitted dose curve at most 10% of control; inactive = the rest
Summary of the method: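 Complex tumor spheroids co-cultured with HUVEC and human MSC stroma; AhR antagonists tested in combination with standard-of-care and investigational agents. Top concentration at or near clinical Cmax (else 10 microM), half-log dilutions; growth expressed as percent test/control.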

[1] = curve of first compound, second compound 0.1 µM
[2] = curve of first compound, second compound 0.316 µM
[3] = curve of first compound, second compound 1 µM
[4] = curve of first compound, second compound 3.16 µM
[5] = curve of first compound, second compound 10 µM
[6] = second compound 0.1 µM, first compound 0.0316 µM
[7] = second compound 0.1 µM, first compound 0.1 µM
[8] = second compound 0.1 µM, first compound 0.316 µM
[9] = second compound 0.1 µM, first compound 1 µM
[10] = second compound 0.1 µM, first compound 3.16 µM
[11] = second compound 0.1 µM, first compound 10 µM
[12] = second compound 0.316 µM, first compound 0.0316 µM
[13] = second compound 0.316 µM, first compound 0.1 µM
[14] = second compound 0.316 µM, first compound 0.316 µM
[15] = second compound 0.316 µM, first compound 1 µM
[16] = second compound 0.316 µM, first compound 3.16 µM
[17] = second compound 0.316 µM, first compound 10 µM
[18] = second compound 1 µM, first compound 0.0316 µM
[19] = second compound 1 µM, first compound 0.1 µM
[20] = second compound 1 µM, first compound 0.316 µM
[21] = second compound 1 µM, first compound 1 µM
[22] = second compound 1 µM, first compound 3.16 µM
[23] = second compound 1 µM, first compound 10 µM
[24] = second compound 3.16 µM, first compound 0.0316 µM
[25] = second compound 3.16 µM, first compound 0.1 µM
[26] = second compound 3.16 µM, first compound 0.316 µM
[27] = second compound 3.16 µM, first compound 1 µM
[28] = second compound 3.16 µM, first compound 3.16 µM
[29] = second compound 3.16 µM, first compound 10 µM
[30] = second compound 10 µM, first compound 0.0316 µM
[31] = second compound 10 µM, first compound 0.1 µM
[32] = second compound 10 µM, first compound 0.316 µM
[33] = second compound 10 µM, first compound 1 µM
[34] = second compound 10 µM, first compound 3.16 µM
[35] = second compound 10 µM, first compound 10 µM
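Also: spheroids exposed to agents for seven days before readout.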
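For viability, T/C in this document: percent of DMSO vehicle control luminescence viability.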

CC1(C)CCC(CN2CCN(c3ccc(C(=O)NS(=O)(=O)c4ccc(NCC5CCOCC5)c([N+](=O)[O-])c4)c(Oc4cnc5[nH]ccc5c4)c3)CC2)=C(c2ccc(Cl)cc2)C1 + Cc1cncc(-c2nc(NCCc3c[nH]c4ccccc34)c3ncn(C(C)C)c3n2)c1
inactive: viability, T/C [6] 93.9% | viability, T/C [7] 92.2% | viability, T/C [8] 98.1% | viability, T/C [9] 117% | viability, T/C [10] 108% | viability, T/C [11] 11.9% | viability, T/C [12] 94.2% | viability, T/C [13] 91.1% | viability, T/C [14] 85.8% | viability, T/C [15] 90.3% | viability, T/C [16] 98.2% | viability, T/C [17] 12.6% | viability, T/C [18] 83% | viability, T/C [19] 96.7% | viability, T/C [20] 83.7% | viability, T/C [21] 76.7% | viability, T/C [22] 84.8% | viability, T/C [23] 11.3% | viability, T/C [24] 76.2% | viability, T/C [25] 80.7% | viability, T/C [26] 77.7% | viability, T/C [27] 60.8% | viability, T/C [28] 69.5% | viability, T/C [29] 13.8% | viability, T/C [30] 38% | viability, T/C [31] 30.6% | viability, T/C [32] 22.1% | viability, T/C [33] 14.7% | viability, T/C [34] 24.5% | viability, T/C [35] 10.5%
5450 nM: IC50 [3]
4530 nM: IC50 [4]
6140 nM: IC50 [1]
5810 nM: IC50 [2]
< 31.6 nM: IC50 [5]

COc1cc(Nc2ncc3c(n2)-c2ccc(Cl)cc2C(c2c(F)cccc2OC)=NC3)ccc1C(=O)O + Cc1cncc(-c2nc(NCCc3c[nH]c4ccccc34)c3ncn(C(C)C)c3n2)c1
987 nM: IC50 [3]
inactive: viability, T/C [6] 104% | viability, T/C [7] 101% | viability, T/C [8] 61.5% | viability, T/C [9] 55% | viability, T/C [10] 50.6% | viability, T/C [11] 45.4% | viability, T/C [12] 98.7% | viability, T/C [13] 94.8% | viability, T/C [14] 61.4% | viability, T/C [15] 52.4% | viability, T/C [16] 52.5% | viability, T/C [17] 50.7% | viability, T/C [18] 99% | viability, T/C [19] 90.5% | viability, T/C [20] 63.2% | viability, T/C [21] 49.3% | viability, T/C [22] 48.6% | viability, T/C [23] 48.2% | viability, T/C [24] 82.8% | viability, T/C [25] 75.9% | viability, T/C [26] 59.7% | viability, T/C [27] 48.6% | viability, T/C [28] 52.2% | viability, T/C [29] 44.8% | viability, T/C [30] 27.9% | viability, T/C [31] 26.7% | viability, T/C [32] 14.8% | viability, T/C [33] 11.4% | viability, T/C [34] 22.5% | viability, T/C [35] 26.4%
> 10000 nM: IC50 [1] | IC50 [2]
< 31.6 nM: IC50 [5]
995 nM: IC50 [4]

CC[C@@]1(O)C(=O)OCc2c1cc1n(c2=O)Cc2cc3c(CN(C)C)c(O)ccc3nc2-1 + Cc1cncc(-c2nc(NCCc3c[nH]c4ccccc34)c3ncn(C(C)C)c3n2)c1
33.7 nM: IC50 [2]
active: viability, T/C (second compound 10 µM, first compound 0.001 µM) 8.89% | viability, T/C (second compound 10 µM, first compound 0.00316 µM) 4.65% | viability, T/C (second compound 10 µM, first compound 0.01 µM) 6.18% | viability, T/C [30] 3.7% | viability, T/C [31] 1.73%
inactive: viability, T/C (second compound 0.1 µM, first compound 0.000316 µM) 95.4% | viability, T/C (second compound 0.1 µM, first compound 0.001 µM) 85.9% | viability, T/C (second compound 0.1 µM, first compound 0.00316 µM) 103% | viability, T/C (second compound 0.1 µM, first compound 0.01 µM) 91.5% | viability, T/C [6] 56.8% | viability, T/C [7] 13.1% | viability, T/C (second compound 0.316 µM, first compound 0.000316 µM) 89.6% | viability, T/C (second compound 0.316 µM, first compound 0.001 µM) 87.1% | viability, T/C (second compound 0.316 µM, first compound 0.00316 µM) 93.6% | viability, T/C (second compound 0.316 µM, first compound 0.01 µM) 89.6% | viability, T/C [12] 52.2% | viability, T/C [13] 11.6% | viability, T/C (second compound 1 µM, first compound 0.000316 µM) 91.4% | viability, T/C (second compound 1 µM, first compound 0.001 µM) 90.6% | viability, T/C (second compound 1 µM, first compound 0.00316 µM) 80.8% | viability, T/C (second compound 1 µM, first compound 0.01 µM) 78.1% | viability, T/C [18] 43.6% | viability, T/C [19] 12% | viability, T/C (second compound 3.16 µM, first compound 0.000316 µM) 77.3% | viability, T/C (second compound 3.16 µM, first compound 0.001 µM) 83.7% | viability, T/C (second compound 3.16 µM, first compound 0.00316 µM) 74.3% | viability, T/C (second compound 3.16 µM, first compound 0.01 µM) 68.5% | viability, T/C [24] 33% | viability, T/C [25] 11.7% | viability, T/C (second compound 10 µM, first compound 0.000316 µM) 13.4%
25.7 nM: IC50 [3]
37.8 nM: IC50 [1]
< 0.316 nM: IC50 [5]
18.1 nM: IC50 [4]

Nc1ncn(C2CC(O)C(CO)S2)c(=O)n1 (configuration not stated)
> 300 nM: IC50 (curve of compound)
inactive: viability, T/C (compound 0.000949 µM) 108% and 96.3% and 97.9% | viability, T/C (compound 0.003 µM) 93.2% and 97.4% and 100% | viability, T/C (compound 0.00949 µM) 95.8% and 97.7% and 113% | viability, T/C (compound 0.03 µM) 82.9% and 103% and 95.7% | viability, T/C (compound 0.0949 µM) 86.4% and 98.1% and 91.1% | viability, T/C (compound 0.3 µM) 81.6% and 99.8% and 82.1%

O=C(C=Cn1cnc(-c2cc(C(F)(F)F)cc(C(F)(F)F)c2)n1)NNc1cnccn1 + Cc1cncc(-c2nc(NCCc3c[nH]c4ccccc34)c3ncn(C(C)C)c3n2)c1
active: viability, T/C (second compound 10 µM, first compound 0.03 µM) 7.81% | viability, T/C (second compound 10 µM, first compound 0.0949 µM) 6.35% | viability, T/C (second compound 10 µM, first compound 0.3 µM) 7.34% | viability, T/C (second compound 10 µM, first compound 0.949 µM) 7.72% | viability, T/C (second compound 10 µM, first compound 3 µM) 8.99%
< 9.49 nM: IC50 [5]
244 nM: IC50 [3]
inactive: viability, T/C (second compound 0.1 µM, first compound 0.00949 µM) 101% | viability, T/C (second compound 0.1 µM, first compound 0.03 µM) 102% | viability, T/C (second compound 0.1 µM, first compound 0.0949 µM) 162% | viability, T/C (second compound 0.1 µM, first compound 0.3 µM) 40.8% | viability, T/C (second compound 0.1 µM, first compound 0.949 µM) 30.8% | viability, T/C (second compound 0.1 µM, first compound 3 µM) 22.6% | viability, T/C (second compound 0.316 µM, first compound 0.00949 µM) 108% | viability, T/C (second compound 0.316 µM, first compound 0.03 µM) 116% | viability, T/C (second compound 0.316 µM, first compound 0.0949 µM) 128% | viability, T/C (second compound 0.316 µM, first compound 0.3 µM) 36.3% | viability, T/C (second compound 0.316 µM, first compound 0.949 µM) 26.3% | viability, T/C (second compound 0.316 µM, first compound 3 µM) 23.3% | viability, T/C (second compound 1 µM, first compound 0.00949 µM) 95.3% | viability, T/C (second compound 1 µM, first compound 0.03 µM) 114% | viability, T/C (second compound 1 µM, first compound 0.0949 µM) 118% | viability, T/C (second compound 1 µM, first compound 0.3 µM) 37.1% | viability, T/C (second compound 1 µM, first compound 0.949 µM) 30.3% | viability, T/C (second compound 1 µM, first compound 3 µM) 25.3% | viability, T/C (second compound 3.16 µM, first compound 0.00949 µM) 83.8% | viability, T/C (second compound 3.16 µM, first compound 0.03 µM) 95.4% | viability, T/C (second compound 3.16 µM, first compound 0.0949 µM) 106% | viability, T/C (second compound 3.16 µM, first compound 0.3 µM) 22.2% | viability, T/C (second compound 3.16 µM, first compound 0.949 µM) 32.2% | viability, T/C (second compound 3.16 µM, first compound 3 µM) 23.9% | viability, T/C (second compound 10 µM, first compound 0.00949 µM) 11.4%
201 nM: IC50 [4]
263 nM: IC50 [1]
247 nM: IC50 [2]

Nc1ccccc1NC(=O)c1ccc(CNC(=O)OCc2cccnc2)cc1 + Cc1ccccc1N=Nc1ccc(NC(=O)c2ccnn2C)c(C)c1
6310 nM: IC50 [1]
6860 nM: IC50 [3]
6010 nM: IC50 [4]
inactive: viability, T/C [6] 101% | viability, T/C [7] 106% | viability, T/C [8] 100% | viability, T/C [9] 107% | viability, T/C [10] 78.4% | viability, T/C [11] 31.1% | viability, T/C [12] 103% | viability, T/C [13] 101% | viability, T/C [14] 104% | viability, T/C [15] 107% | viability, T/C [16] 84% | viability, T/C [17] 26.5% | viability, T/C [18] 106% | viability, T/C [19] 105% | viability, T/C [20] 109% | viability, T/C [21] 111% | viability, T/C [22] 91.2% | viability, T/C [23] 29.8% | viability, T/C [24] 97.4% | viability, T/C [25] 92.7% | viability, T/C [26] 92.1% | viability, T/C [27] 98% | viability, T/C [28] 86.2% | viability, T/C [29] 21.1% | viability, T/C [30] 85.3% | viability, T/C [31] 84.3% | viability, T/C [32] 87.4% | viability, T/C [33] 86.3% | viability, T/C [34] 61.6% | viability, T/C [35] 18.2%
6250 nM: IC50 [2]
4290 nM: IC50 [5]
